The results in this text go back to patent US9334246B2, “Substituted triazines for malaria treatment and chemoprophylaxis” (The United States of America, as represented by the …, priority 2013, dated 2016).

Structures are written as SMILES.

Format in all cases: cell-based, Plasmodium falciparum
One assay relates to P. falciparum C235. The assay can be described thus: Malaria SYBR Green Fluorescence Assay, C235 strain. The note with it: for C235: SYBR Green Assay.
Another assay has as its system P. falciparum D6. The assay can be described thus: Malaria SYBR Green Fluorescence Assay, D6 strain. The note with it: for D6: SYBR Green Assay.
The subject of another assay is P. falciparum W2. As to the kind of experiment: Malaria SYBR Green Fluorescence Assay, W2 strain. As to conditions: for W2: SYBR Green Assay.

Regarding `CN(C)CCCNc1nc(C(Cl)(Cl)Cl)nc(C(Cl)(Cl)Cl)n1.ClC(Cl)(Cl)c1ccc(C(Cl)(Cl)Cl)cc1` [Cmpd 604], in the assay with P. falciparum C235, the “C235 (SYBR Green Assay IC50)” value came out at 0.628 µg/mL. The “D6 (SYBR Green Assay IC50)” value in the assay with P. falciparum D6 came out at 0.224 µg/mL. Further, in the assay with P. falciparum W2, the “W2 (SYBR Green Assay IC50)” value is 0.363 µg/mL.
Consider `COc1ccc(-c2nc(N3CCC(N)CC3)nc(C(Cl)(Cl)Cl)n2)c2ccccc12` [Compound 620, COC1═CC═C(C2═NC(═NC(═N2)C(Cl)(Cl)Cl)N2CCC(N)CC2)C2═C1C═CC═C2], for which, in the assay on P. falciparum C235, the “C235 (SYBR Green Assay IC50)” value came to 0.409 µg/mL. Further, in the assay on P. falciparum D6, the “D6 (SYBR Green Assay IC50)” value came out at 0.431 µg/mL. Further, in the assay on P. falciparum W2, the “W2 (SYBR Green Assay IC50)” value stood at 0.175 µg/mL.
`NC1CCN(c2nc(-c3ccccc3)nc(C(Cl)(Cl)Cl)n2)CC1` [Compound 621, NC1CCN(CC1)C1═NC(═NC(═N1)C1═CC═CC═C1)C(Cl)(Cl)Cl]: in the assay on P. falciparum C235, the “C235 (SYBR Green Assay IC50)” value was 0.319 µg/mL. In the assay on P. falciparum D6, the “D6 (SYBR Green Assay IC50)” value worked out at 0.29 µg/mL. The “W2 (SYBR Green Assay IC50)” value in the assay with P. falciparum W2 stood at 0.101 µg/mL.
Take `CC(C)(C)c1ccc(-c2nc(N3CCC(N)CC3)nc(C(Cl)(Cl)Cl)n2)cc1` [Compound 624, CC(C)(C)C1═CC═C(C═C1)C1═NC(═NC(═N1)C(Cl)(Cl)Cl)N1CCC(N)CC1]: the “C235 (SYBR Green Assay IC50)” value in the assay on P. falciparum C235 stood at 0.062 µg/mL. Besides, the “D6 (SYBR Green Assay IC50)” value with P. falciparum D6 came to 0.091 µg/mL. The “W2 (SYBR Green Assay IC50)” value with P. falciparum W2 stood at 0.043 µg/mL.
On to `NC1CCN(c2nc(-c3cccc(C(F)(F)F)c3)nc(C(Cl)(Cl)Cl)n2)CC1` [Compound 625, NC1CCN(CC1)C1═NC(═NC(═N1)C1═CC═CC(═C1)C(F)(F)F)C(Cl)(Cl)Cl], for which the “C235 (SYBR Green Assay IC50)” value in the assay with P. falciparum C235 is 0.02 µg/mL. Also, the “D6 (SYBR Green Assay IC50)” value in the assay on P. falciparum D6 was found to be 0.047 µg/mL. In addition, the “W2 (SYBR Green Assay IC50)” value with P. falciparum W2 was determined as 0.012 µg/mL.
As for `CS(=O)(=O)c1ccc(-c2nc(N3CCC(N)CC3)nc(C(Cl)(Cl)Cl)n2)cc1` [Compound 627, CS(═O)(═O)C1═CC═C(C═C1)C1═NC(═NC(═N1)C(Cl)(Cl)Cl)N1CCC(N)CC1], the “C235 (SYBR Green Assay IC50)” value with P. falciparum C235 worked out at 0.048 µg/mL. In addition, in the assay with P. falciparum D6, the “D6 (SYBR Green Assay IC50)” value was 0.085 µg/mL. Moreover, the “W2 (SYBR Green Assay IC50)” value with P. falciparum W2 worked out at 0.025 µg/mL.
Turning to `NC1CCN(c2nc(-c3ccc(Cl)cc3)nc(C(Cl)(Cl)Cl)n2)CC1` [Compound 630, NC1CCN(CC1)C1═NC(═NC(═N1)C(Cl)(Cl)Cl)C1═CC═C(Cl)C═C1], in the assay with P. falciparum C235, the “C235 (SYBR Green Assay IC50)” value was 0.013 µg/mL. Further, in the assay with P. falciparum D6, the “D6 (SYBR Green Assay IC50)” value was 0.012 µg/mL. Further, the “W2 (SYBR Green Assay IC50)” value in the assay with P. falciparum W2 was found to be 0.01 µg/mL.
Take `NC1CCN(c2nc(-c3ccccc3[N+](=O)[O-])nc(C(Cl)(Cl)Cl)n2)CC1` [Compound 632, NC1CCN(CC1)C1═NC(═NC(═N1)C(Cl)(Cl)Cl)C1═C(C═CC═C1)[N+]([O−])═O]: the “C235 (SYBR Green Assay IC50)” value in the assay with P. falciparum C235 was 0.058 µg/mL. Also, in the assay on P. falciparum D6, the “D6 (SYBR Green Assay IC50)” value stood at 0.064 µg/mL. For the same compound, the “W2 (SYBR Green Assay IC50)” value in the assay on P. falciparum W2 came to 0.04 µg/mL.
For `NC1CCN(c2nc(-c3cccc(Cl)c3)nc(C(Cl)(Cl)Cl)n2)CC1` [Compound 633, NC1CCN(CC1)C1═NC(═NC(═N1)C(Cl)(Cl)Cl)C1═CC(Cl)═CC═C1] the same measures were 0.01 µg/mL, 0.01 µg/mL and 0.008 µg/mL.
Turning to `COc1cc(OC)cc(-c2nc(N3CCC(N)CC3)nc(C(Cl)(Cl)Cl)n2)c1` [Compound 635, COC1═CC(═CC(OC)═C1)C1═NC(═NC(═N1)C(Cl)(Cl)Cl)N1CCC(N)CC1], in the assay on P. falciparum C235, the “C235 (SYBR Green Assay IC50)” value is 0.218 µg/mL. For the same compound, the “D6 (SYBR Green Assay IC50)” value in the assay with P. falciparum D6 was 0.259 µg/mL. Moreover, in the assay on P. falciparum W2, the “W2 (SYBR Green Assay IC50)” value came to 0.135 µg/mL.
`FC(F)(F)Oc1ccc(Nc2nc(NCCN3CCCC3)nc(C(Cl)(Cl)Cl)n2)cc1` [Compound 656, FC(F)(F)OC1═CC═C(NC2═NC(═NC(NCCN3CCCC3)═N2)C(Cl)(Cl)Cl)C═C1] displayed a C235 with P. falciparum C235 of 7 ng/mL. This compound registered a D6 with P. falciparum D6 of 3 ng/mL. Moreover, in the assay with P. falciparum W2, the W2 is recorded as 2 ng/mL.
The compound `CSc1ccc(-c2nc(NCC3(N)CCCCC3)nc(C(Cl)(Cl)Cl)n2)cc1` [Compound 664, CSC1═CC═C(C═C1)C1═NC(NCC2(N)CCCCC2)═NC(═N1)C(Cl)(Cl)Cl] registered a C235 with P. falciparum C235 of 47 ng/mL. In the assay with P. falciparum D6, this compound displayed a D6 of 18 ng/mL. In the assay on P. falciparum W2, this compound displayed a W2 of 21 ng/mL.
For `NC1(CNc2nc(-c3ccc(Cl)c(Cl)c3)nc(C(Cl)(Cl)Cl)n2)CCCCC1` [Compound 670, NC1(CNC2═NC(═NC(═N2)C2═CC(Cl)═C(Cl)C═C2)C(Cl)(Cl)Cl)CCCCC1], in the assay with P. falciparum C235, the C235 was 38 ng/mL. The compound further registered a D6 in the assay on P. falciparum D6 of 22 ng/mL. The same compound showed a W2 in the assay with P. falciparum W2 of 20 ng/mL.
As for `COc1ccc(-c2nc(NCC3(N)CCCC3)nc(C(Cl)(Cl)Cl)n2)cc1OC` [Compound 674, COC1═C(OC)C═C(C═C1)C1═NC(NCC2(N)CCCC2)═NC(═N1)C(Cl)(Cl)Cl], in the assay on P. falciparum C235, the C235 was 18 ng/mL. This compound returned a D6 in the assay on P. falciparum D6 of 8 ng/mL. This compound had a W2 with P. falciparum W2 of 6 ng/mL.
For the compound `NC1(CNc2nc(-c3ccc(Cl)cc3)nc(C(Cl)(Cl)Cl)n2)CC1` [Compound 678, NC1(CNC2═NC(═NC(═N2)C2═CC═C(Cl)C═C2)C(Cl)(Cl)Cl)CC1], the C235 with P. falciparum C235 worked out at 20 ng/mL. The same compound returned a D6 in the assay with P. falciparum D6 of 11 ng/mL. In the assay on P. falciparum W2, the W2 was determined as 12 ng/mL.
For `Cc1ccc(-c2nc(NCC3(N)CC3)nc(C(Cl)(Cl)Cl)n2)cc1` [Compound 681, CC1═CC═C(C═C1)C1═NC(NCC2(N)CC2)═NC(═N1)C(Cl)(Cl)Cl], the C235 in the assay with P. falciparum C235 stood at 750 ng/mL. In the assay with P. falciparum D6, this compound yielded a D6 of 593 ng/mL. This compound also had a W2 with P. falciparum W2 of 328 ng/mL.
The compound `NC1(CNc2nc(-c3cccc(C(F)(F)F)c3)nc(C(Cl)(Cl)Cl)n2)CC1` [Compound 682, NC1(CNC2═NC(═NC(═N2)C2═CC(═CC═C2)C(F)(F)F)C(Cl)(Cl)Cl)CC1] returned a C235 with P. falciparum C235 of 82 ng/mL. In the assay with P. falciparum D6, this compound showed a D6 of 68 ng/mL. Further, the W2 in the assay with P. falciparum W2 was 31 ng/mL.
In the assay with P. falciparum C235, `CN(CC(=O)OC(C)(C)C)c1nc(-c2ccc(Cl)cc2)nc(C(Cl)(Cl)Cl)n1` [Compound 687, CN(CC(═O)OC(C)(C)C)c1nc(nc(n1)C(Cl)(Cl)Cl)c2ccc(Cl)cc2] had a C235 of 501 ng/mL. For the same compound, the D6 with P. falciparum D6 is 501 ng/mL. The W2 in the assay with P. falciparum W2 was 501 ng/mL.
In the assay with P. falciparum C235, `CC(=O)Nc1cccc(Nc2nc(-c3ccc(S(C)(=O)=O)cc3)nc(C(Cl)(Cl)Cl)n2)c1` [Compound 691, CC(═O)Nc1cccc(Nc2nc(nc(n2)C(Cl)(Cl)Cl)c3ccc(cc3)S(═O)(═O)C)c1] returned a C235 of 705 ng/mL. In the assay on P. falciparum D6, this compound yielded a D6 of 341 ng/mL. For the same compound, the W2 in the assay on P. falciparum W2 is listed as 256 ng/mL.
As for `CC(C)CN1CCC(Nc2nc(-c3ccc(Cl)cc3)nc(C(Cl)(Cl)Cl)n2)CC1` [Compound 693, CC(C)CN1CCC(CC1)NC1═NC(═NC(═N1)C(Cl)(Cl)Cl)C1═CC═C(Cl)C═C1], the C235 in the assay with P. falciparum C235 was 69 ng/mL. In addition, the D6 in the assay on P. falciparum D6 worked out at 37 ng/mL. The same compound displayed a W2 in the assay with P. falciparum W2 of 29 ng/mL.
For the compound `CC(C)CN1CCC(Nc2nc(-c3cccc(Cl)c3)nc(C(Cl)(Cl)Cl)n2)CC1` [Compound 701, CC(C)CN1CCC(CC1)NC1═NC(═NC(═N1)C1═CC(Cl)═CC═C1)C(Cl)(Cl)Cl], the C235 in the assay with P. falciparum C235 is listed as 351 ng/mL. The compound also returned a D6 with P. falciparum D6 of 282 ng/mL. The compound further displayed a W2 in the assay on P. falciparum W2 of 195 ng/mL.
The compound `CC(=O)Nc1cccc(Nc2nc(C(Cl)(Cl)Cl)nc(C(Cl)(Cl)Cl)n2)c1` [Compound 727, CC(═O)Nc1cccc(Nc2nc(nc(n2)C(Cl)(Cl)Cl)C(Cl)(Cl)Cl)c1] gave a C235 in the assay with P. falciparum C235 of 319 ng/mL. In the assay with P. falciparum D6, this compound gave a D6 of 256 ng/mL. The compound further displayed a W2 in the assay on P. falciparum W2 of 131 ng/mL.
